The record followed here is patent US20230338473A1, “AN[…] TARGETING IL-2, IL-9, AND IL-15 SIGNALING FOR THE TREATMENT OF CYTOK[…] AND CYTOKINE STORM ASSOCIATED DISORDERS” (priority 2020, published 2023).

One test deals with IL-4. In words: PT-18β proliferation assay (WST-1), IL-4. Format: cell-based. Conditions: PT-18β cells, 1 nM cytokine, BNZ-γ as 1:20 or 1:60 dilution of HEK293T supernatant, 2 days. The text has this: (§1) For each of the six γc-cytokines, indicator cell lines: NK92, a human NK cell line NK92 available by American Type Culture Collection (ATCC) (catalog # CRL-2407), CTLL-2, a murine CD8 T cells line available from ATCC, and PT-18, a murine mast cell line and its subclone PT-18β, is transfected with human IL-2Rβ gene to make the cells responsive to IL-2 and IL-15 (Tagaya et al., 1996, EMBO J. 15:4928-39), and is used to quantitatively determine the γc-cytokine’s growth-promoting activity (See Current protocols in Immunology from Wiley and Sons for a methodological reference).
(§2) Once the appropriate doses of the cytokine that yield the 50% and 95% maximum response from the indicator cell line is determined, various concentrations (ranging from 1 pM to 10 µM) of the purified or synthesized custom derivative peptide is added to each well containing the cytokine and indicator cells. The reduction in light absorbance at 450 nm is used as an indicator of inhibition of cytokine-stimulated cellular proliferation. Typically, the cells are stimulated by the cytokines such that the absorbance of the well containing indicator cell line and the cytokine is between 2.0 and 3.0, which is reduced to a range of 0.1 to 0.5 by the addition of inhibitory peptides. […]
(§3) The growth-responses of the cells were determined 2 days after the introduction of BNZ-γpeptide and the cytokine using the WST-1 assay. […]

For the next test, the system named is IL-9. Briefly: PT-18β proliferation assay (WST-1), IL-9. To be noted: PT-18β cells, 1 nM cytokine, BNZ-γ as 1:20 or 1:60 dilution of HEK293T supernatant, 2 days. The class given is cell-based.
Description: as §1, §2, §3

The subject of another test is IL-3. In words: PT-18β proliferation assay (WST-1), IL-3 negative control. The class given is cell-based. To be noted: PT-18β cells, 1 nM cytokine, BNZ-γ as 1:20 or 1:60 dilution of HEK293T supernatant, 2 days.
Description: as §1, §2, §3

Another test has as its system IL-15. In words: PT-18β proliferation assay (WST-1), IL-15. The class given is cell-based. To be noted: PT-18β cells, 1 nM cytokine, BNZ-γ as 1:20 or 1:60 dilution of HEK293T supernatant, 2 days.
Description: as §1, §2, §3
Background: Tetrazolium dyes change colour on reduction, which living cells bring about.

Test [1] deals with NSG mice transplanted with huPBMCs and infected with LCMV. To be noted: mouse, in vivo.
The subject of the next test is STAT5. In words: IL-15-mediated tyrosine phosphorylation of STAT5 in PT-18β cells (immunoblot). The class given is cell-based. To be noted: PT-18β cells stimulated by IL-15, anti-phospho-STAT5 immunoblot. The text has this: In addition to stimulating cellular proliferation, binding of the γc-cytokines to their receptors causes a diverse array of intracellular events. (Rochman et al., 2009, Nat Rev Immunol 9:480-90; Pesu et al., 2005, Immunol Rev 203:127-42). Immediately after the cytokine binds to its receptor, a tyrosine kinase called Jak3 (Janus-kinase 3) is recruited to the receptor at the plasma membrane. This kinase phosphorylates the tyrosine residues of multiple proteins including the γc-subunit, STAT5 (Signal Transducer and Activator of Transcription 5) and subunits of the PI3 (Phosphatidylinositol 3) kinase. Among these, the phosphorylation of STAT5 has been implicated in many studies as being linked to the proliferation of cells initiated by the γc-cytokine (Hennighausen and Robinson, 2008, Genes Dev 22:711-21). In accordance with these published data, whether or not the BNZ-γ peptide inhibits the tyrosine phosphorylation of STAT5 molecule in PT-18β cells stimulated by IL-15 was examined (results shown in FIG. 4).
PT-18β cells were stimulated by IL-15 in the presence or absence of BNZ-γ peptide. Cytoplasmic proteins were extracted from the cells according to a conventional method (Tagaya et al., 1996, EMBO J 15:4928-39). […]

Test [2] has as its system pro-inflammatory cytokines IL-6, IFN-γ, TNF-α, and MCP-1. Conditions: mouse, in vivo.
Another test concerns IL-2. In words: CTLL-2 proliferation assay (3H-thymidine), IL-2. Format: cell-based. Conditions: CTLL-2 cells, 50 pM IL-2, BNZ-γ 0.1, 1, 10 µM, 20 hours, 3H-thymidine (FIG. 3B). As to the method:
In a similar assay, the murine cell line CTTL2 was used. In this assay the cells were cultured with 0.5 nM of recombinant IL-2 in RPMI 10% fetal Calf Serum. To set up the proliferation assay, cells were washed from the cytokines 3 times. Cells were seeded at 1 × 10(5) cells per well of a 96-well plate with final concentration of 50 pM of IL-2 or IL-15. Various concentration of BNZ-γ peptide (0.1, 1, and 10 µM) was added to each well. Cells were cultured for 20 hours and in the last 4 hours, ^3H-thymidine was added to the plates. Cells were harvested and radioactivity measured to determine cell proliferation levels.
Inhibition of γc-cytokine-induced proliferation of an indicator cell population by antagonist custom derivative peptides is measured by the 3H-thymidine incorporation assay. Briefly, radiolabeled thymidine (1 microCi) is given to 20-50,000 cells undergoing proliferation in the presence of cytokines. The cell-incorporated radioactivity is measured by trapping cell-bound radioactivity to a glass-fiber filter using a conventional harvester machines (Example, Filtermate Universal Harvester from Perkin-Elmer), after which the radioactivity is measured using a b-counter (Example 1450, Trilux microplate scintillation counter).

Chain of IL-3 (P01586 27-166): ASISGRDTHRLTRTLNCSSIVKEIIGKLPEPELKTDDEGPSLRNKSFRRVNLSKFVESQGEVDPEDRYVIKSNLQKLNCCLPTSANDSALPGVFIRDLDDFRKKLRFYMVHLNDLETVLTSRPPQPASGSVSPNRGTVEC

In the case of “I-K-E-F-L-Q-R-F-I-H-I-V-Q-S-I-I-N-T-S (IKEFLQRFIHIVQSIINTS) [BNZ-γ]”, in the test with IL-4, the “cellular proliferation stimulated by IL-4” value is “not affected”. For the same substance, the “growth-promoting activity of IL-9” value in the test with IL-9 is reported as “significantly (p<0.01 Student’s T test) reduced”. Moreover, the “growth-promoting activity of IL-3 (a non γc-cytokine)” value in the test on IL-3 was “not inhibited”. Besides, in the test with IL-15, the “growth-promoting activity of IL-15” value was “significantly (p<0.01 Student’s T test) reduced”. In test [1], the “protection from cytokine storm-induced mortality” value is recorded as 100% and the “survival over the 5-week study period” value is given as “survived the 5-week study period”. Moreover, in the test with STAT5, the “tyrosine phosphorylation of STAT5 induced by IL-15” value was “markedly reduced”. The “pro-inflammatory cytokine plasma levels” value in test [2] is on record as “drastically reduced”. Also, in test [2] (2 mg/kg), the “course of IL-6 plasma level over the measurement period” value is given as “clear incremental decreases”, the “course of TNF-α plasma level over the measurement period” value is reported as “clear incremental decreases”, the “drop in IFN-γ plasma level versus PBS vehicle control” value worked out at 4.5 fold and the “drop in IL-6 plasma level versus PBS vehicle control” value is 6 fold. Further, in test [2] (2 mg/kg), the “drop in MCP-1 plasma level versus PBS vehicle control” value came to 7.5 fold and the “drop in TNF-α plasma level versus PBS vehicle control” value is reported as 7 fold. Also, in the test with IL-2, the “IL-2 induced cellular proliferation” value is reported as “suppresses”.
